This is an account of results in ChEMBL document CHEMBL1201862, “PubChem BioAssay data set” (2004).

Molecules are shown by their SMILES.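 Tested at 5 concentrations; 48 h exposure; 96-well plates; endpoints linearly interpolated, else capped at highest concentration. Abbreviation: GI50, concentration required for 50% inhibition of growth.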 Calls of active or inactive are those of the source. No stated cut-off is given here; in the data, active = GI50 up to about 1.1 µM and inactive = higher.

Test systems include SN12C; CCRF-CEM; LOX IMVI; HCC 2998; SF-539; DU-145; SW-620; RPMI-8226; SF-268; U-251; UO-31; A549; SK-MEL-28; IGROV-1; OVCAR-4; EKVX; HL-60; SK-OV-3; MDA-N.
Experiment in all cases: inhibition of tumour cell growth, NCI panel, 48 h

`Cc1c(C(=O)OCc2ccccc2)[n+]([O-])c2cc(F)c(F)cc2[n+]1[O-]`: the GI50 is 1.94 µM (inactive) in the test with SN12C; 0.944 µM (active) in the test on CCRF-CEM; 0.421 µM (active) in the test on LOX IMVI; 1.9 µM (inactive) in the test with HCC 2998; 2.52 µM (inactive) in the test with SF-539; 2.41 µM (inactive) in the test with DU-145. Besides, the GI50 in the test with SW-620 was 0.64 µM (active); in the test on RPMI-8226 it was 4.41 µM (inactive); in the test on SF-268, 1.25 µM (inactive); with U-251, 2.3 µM (inactive); in the test on UO-31, 1.79 µM (inactive); in the test on A549 it was 3.2 µM (inactive). Further, the GI50 in the test with SK-MEL-28 was 2.06 µM (inactive); in the test with IGROV-1, 1.73 µM (inactive); in the test on OVCAR-4, 1.77 µM (inactive); in the test on EKVX it was 3.26 µM (inactive); in the test with HL-60, 1.06 µM (active).

In the case of `COC(=O)c1ccccc1Nc1nc(-c2cccs2)nc2cc(OC)c(OC)cc12`, the GI50 with SN12C is 48.5 µM (inactive); in the test on LOX IMVI, 39.4 µM (inactive); with SF-539, 27.4 µM (inactive); in the test with DU-145, 92.3 µM (inactive); in the test on SW-620, > 100 µM (inactive); in the test with RPMI-8226, 49.8 µM (inactive). For the same molecule, the GI50 was 46.3 µM (inactive) in the test on SF-268; 31.2 µM (inactive) with U-251; 55.7 µM (inactive) with SK-OV-3; > 100 µM (inactive) in the test with UO-31; 54 µM (inactive) in the test with A549; > 100 µM (inactive) in the test on SK-MEL-28. For the same molecule, the GI50 in the test with IGROV-1 was 14.7 µM (inactive); in the test on OVCAR-4 it was 40.6 µM (inactive); in the test on EKVX, 37.9 µM (inactive); in the test on HL-60, > 100 µM (inactive).

With `CC1(C)C2CCC1(CC(=O)O)C(Cl)C2` (configuration not stated), the GI50 in the test on SN12C, with CCRF-CEM, in the test with LOX IMVI, in the test with HCC 2998, in the test with SF-539 and in the test on DU-145 was > 100 µM (inactive) throughout. Besides, the GI50 with SW-620, with RPMI-8226, with SF-268, in the test with U-251, with SK-OV-3 and in the test on UO-31 was > 100 µM (inactive) throughout. Besides, the GI50 with A549, in the test on SK-MEL-28, in the test on IGROV-1, with OVCAR-4, in the test with EKVX and in the test with HL-60 was > 100 µM (inactive) each time.

For `Cc1ccc(S(=O)(=O)NC(=O)NCCc2ccc(O)c(O)c2)cc1`, the GI50 was 53.6 µM (inactive) with LOX IMVI; > 100 µM (inactive) in the test with HCC 2998; > 100 µM (inactive) with SF-539; > 100 µM (inactive) in the test on DU-145; > 100 µM (inactive) in the test with SW-620; 38 µM (inactive) in the test on RPMI-8226. For the same molecule, the GI50 in the test on SF-268, in the test on U-251, in the test on SK-OV-3, in the test on UO-31, in the test on A549 and in the test on SK-MEL-28 was > 100 µM (inactive) each time. The GI50 in the test with IGROV-1 is > 100 µM (inactive); in the test on OVCAR-4, > 100 µM (inactive); in the test with EKVX it was > 100 µM (inactive); with HL-60, 56.5 µM (inactive).

With `CC1OC(O)C(O)C(O)C1O` (configuration not stated), the GI50 with SN12C, with LOX IMVI, in the test on MDA-N, in the test with SF-539, with DU-145 and in the test with SW-620 was > 100 µM (inactive) throughout. Further, the GI50 in the test on RPMI-8226, in the test on SF-268, with U-251, in the test with SK-OV-3, with UO-31 and with A549 was > 100 µM (inactive) throughout. Moreover, the GI50 in the test on SK-MEL-28, in the test on IGROV-1, in the test on OVCAR-4 and in the test on EKVX was > 100 µM (inactive) in each case.

Take `CCOC(=O)C1CC(=O)C=C2CCCCC21` (configuration not stated): the GI50 in the test on SN12C, with CCRF-CEM, in the test on LOX IMVI, in the test on HCC 2998, with SF-539 and in the test with SW-620 was > 100 µM (inactive) throughout. In addition, the GI50 in the test with RPMI-8226, with SF-268, in the test on U-251, in the test with SK-OV-3, with UO-31 and in the test on A549 was > 100 µM (inactive) each time. Also, the GI50 with SK-MEL-28, in the test with IGROV-1, with OVCAR-4, in the test with EKVX and in the test on HL-60 was > 100 µM (inactive) each time.

In the case of `O=CC12c3ccccc3C(c3ccccc31)C1C(=O)NC(=O)C12` (configuration not stated), the GI50 with SN12C is > 100 µM (inactive); in the test with CCRF-CEM, 41.7 µM (inactive); in the test with LOX IMVI, 50.1 µM (inactive); with HCC 2998 it was > 100 µM (inactive); in the test with SF-539 it was > 100 µM (inactive); in the test on DU-145 it was > 100 µM (inactive). In addition, the GI50 with SW-620 was > 100 µM (inactive); with SF-268, > 100 µM (inactive); in the test with U-251, > 100 µM (inactive); in the test on SK-OV-3, > 100 µM (inactive); with UO-31 it was 44.7 µM (inactive); in the test on A549 it was > 100 µM (inactive). Further, the GI50 in the test on SK-MEL-28 is > 100 µM (inactive); with IGROV-1, 37.2 µM (inactive); with OVCAR-4, > 100 µM (inactive); in the test on EKVX, > 100 µM (inactive); in the test on HL-60, > 100 µM (inactive).

As to `CN1CN(c2ccccc2)C2(CCN(CCCN(C)c3ccc(F)cc3)CC2)C1=O`, the GI50 with SN12C is 34.5 µM (inactive); with CCRF-CEM it was 11.2 µM (inactive); with LOX IMVI it was 15.8 µM (inactive); with MDA-N it was 16.3 µM (inactive); in the test on SF-539, 22.5 µM (inactive); in the test on DU-145 it was 23.9 µM (inactive). For the same molecule, the GI50 with SW-620 was 17.8 µM (inactive); in the test with RPMI-8226 it was 10.7 µM (inactive); in the test with SF-268 it was 20.3 µM (inactive); in the test on U-251, 18.6 µM (inactive); in the test on SK-OV-3 it was 17.1 µM (inactive); with UO-31, 16.2 µM (inactive). For the same molecule, the GI50 with A549 is 23.2 µM (inactive); in the test with SK-MEL-28, 20.9 µM (inactive); in the test on IGROV-1 it was 16.5 µM (inactive); in the test with HL-60, 3.21 µM (inactive).

With `COc1cccc(Nc2nc(C)c([N+](=O)[O-])c(Nc3cccc(OC)c3)n2)c1`, the GI50 is 54.3 µM (inactive) in the test on SN12C; 16.1 µM (inactive) in the test with LOX IMVI; 17.9 µM (inactive) with MDA-N; 29 µM (inactive) in the test on SF-539; 9.79 µM (inactive) in the test on DU-145; > 100 µM (inactive) with SW-620. The GI50 in the test on RPMI-8226 is 5.06 µM (inactive); in the test with SF-268, 40.4 µM (inactive); in the test on U-251 it was 49.1 µM (inactive); in the test with SK-OV-3, > 100 µM (inactive); in the test on UO-31 it was 9.27 µM (inactive); in the test with A549, 12.1 µM (inactive). Moreover, the GI50 was 39.5 µM (inactive) with SK-MEL-28, 14.6 µM (inactive) in the test with IGROV-1, 6.35 µM (inactive) in the test with EKVX and 11.2 µM (inactive) in the test with HL-60.

With `COc1cccc2c1OC(c1ccc(Cl)cc1)C([N+](=O)[O-])=C2` (configuration not stated), the GI50 with SN12C is 2.35 µM (inactive); in the test on CCRF-CEM it was 0.356 µM (active); in the test with LOX IMVI, 1.2 µM (inactive); in the test with MDA-N, 1.42 µM (inactive); with DU-145, 3.68 µM (inactive); in the test on RPMI-8226, 1.52 µM (inactive). Moreover, the GI50 in the test on SF-268 was 3.18 µM (inactive); in the test with U-251, 2.38 µM (inactive); in the test with SK-OV-3, 3.57 µM (inactive); in the test with UO-31 it was 1.77 µM (inactive); with A549, 9.82 µM (inactive); in the test on SK-MEL-28, 2.61 µM (inactive). The GI50 with IGROV-1 was 2.25 µM (inactive); in the test with OVCAR-4, 2.17 µM (inactive); in the test on EKVX, 11.7 µM (inactive); in the test with HL-60 it was > 100 µM (inactive).

For the molecule `CC(=O)CC(=O)OC1CC(C)CCC1C(C)C` (configuration not stated), the GI50 with SN12C is > 100 µM (inactive); in the test with CCRF-CEM, 11.7 µM (inactive); in the test with LOX IMVI it was 47.6 µM (inactive); with HCC 2998, 41.4 µM (inactive); in the test on SF-539, 36.8 µM (inactive); with SW-620, 43.1 µM (inactive). Moreover, the GI50 in the test on RPMI-8226 is 15 µM (inactive); with SF-268, 45.7 µM (inactive); in the test with U-251, 47 µM (inactive); with SK-OV-3 it was > 100 µM (inactive); in the test on UO-31, > 100 µM (inactive); in the test with A549, 35.3 µM (inactive). In addition, the GI50 was 63.4 µM (inactive) with SK-MEL-28; 76.6 µM (inactive) in the test on IGROV-1; 54.5 µM (inactive) in the test on OVCAR-4; > 100 µM (inactive) in the test with EKVX; 18.8 µM (inactive) with HL-60.

Consider `CC(=O)c1cn(-c2ccc(Cl)cc2)c(=O)c2c(N)n[nH]c12`, for which the GI50 was > 100 µM (inactive) in the test on CCRF-CEM; 43 µM (inactive) in the test with LOX IMVI; > 100 µM (inactive) in the test on HCC 2998; > 100 µM (inactive) with DU-145; > 100 µM (inactive) with SW-620; > 100 µM (inactive) in the test on RPMI-8226. For the same molecule, the GI50 in the test with SF-268, with U-251, with SK-OV-3, with UO-31, in the test with SK-MEL-28 and with IGROV-1 was > 100 µM (inactive) throughout. Also, the GI50 in the test on OVCAR-4, with EKVX and in the test with HL-60 was > 100 µM (inactive) in each case.
